This note sets out measurements from article PMC12549899 (Nature Communications, 2025).

The nature of this data set: Mixing of DMSO master stock into aqueous cryo-EM sample (precipitation). The following applies: 0.2 µL of 2.17 M DMSO stock into 40 µL DrOTOP1 sample, nominal ≤ 10.85 mM, 0.5% DMSO. The format is physicochemical. As for the experimental part: All protein purification steps were performed at 4 °C, and buffers were chilled on ice until use unless otherwise noted. Cell pellets were thawed in a room-temperature water bath and resuspended in Solubilization Buffer (25 mM Tris pH 8.0, 150 mM NaCl, 1% n-dodecyl-β-d-maltoside (DDM), 0.15% cholesteryl hemisuccinate (CHS), […], 1 mM phenylmethylsulfonyl Fluoride (PMSF), 2 µM pepstatin A and 2 mM dithiothreitol (DTT)) and was stirred for 1 – 3 h for detergent solubilization. The lysate was centrifuged at 40,000 × g and the supernatant was collected. […]. Next, the mixture was flowed over a gravity chromatography column, and flowthrough containing GFP-cleaved DrOTOP1 was collected and concentrated in a 100 kDa cutoff centrifugal concentrator (Amicon® Ultra or Pierce™) that was pre-equilibrated with SEC1 Buffer, to 500 µL volume. […] The resulting peaks were analyzed with sodium dodecyl sulfate-polyacrylamide gel electrophoresis (SDS-PAGE), and fractions corresponding to dimeric DrOTOP1 were pooled. […] The resulting peaks were analyzed with SDS-PAGE, and fractions corresponding to dimeric DrOTOP1 in lipid nanodisc were pooled and concentrated to 2 – 5 mg/mL with a 100 kDa cutoff centrifugal concentrator (Amicon® Ultra or Pierce™). […]

In the case of `C=C(C)COc1ccccc1NC(=O)c1nc[nH]c1C` [C2.2], the “Solubility in aqueous buffer” value is on record as “visible precipitation formed”.
